# Test results: patent US11814367B2, “Inhibitors of glycogen synthase 1 (GYS1) and methods of use thereof” (Maze Therapeutics, Inc., priority 2021, dated 2023)
# Key:
# [1] = target: hGYS2 enzyme (recombinant hGYS2/GN1 protein) (Homo sapiens (Human), UniProt P54840); test: GYS2 coupled enzyme assay (PK/LDH); format: biochemical; details: geometric mean of at least 2 assay runs on separate days, read-out: Avg_IC50
# Outline: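 Continuous PK/LDH-coupled readout of NADH loss at 340 nm over 10 min, with 200 nM hGYS2/GN1 and 2 mM each of UDP-glucose, glucose-6-phosphate and PEP, in 50 mM Tris pH 7.5 with 0.2% glycogen and 2.5% DMSO. Slopes were normalized to controls and IC50s fit to a Hill curve from duplicates.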
# [2] = target: hGYS1 enzyme (recombinant hGYS1/GN1 protein) (Homo sapiens (Human), UniProt P13807); test: GYS1 coupled enzyme assay (PK/LDH); format: biochemical; details: hGYS1/GN1 50 nM, UDP-Glucose 0.8 mM, G6P 1 mM; geometric mean of at least 2 runs
# hGYS1 enzyme (recombinant hGYS1/GN1 protein), sequence (P13807 whole entry): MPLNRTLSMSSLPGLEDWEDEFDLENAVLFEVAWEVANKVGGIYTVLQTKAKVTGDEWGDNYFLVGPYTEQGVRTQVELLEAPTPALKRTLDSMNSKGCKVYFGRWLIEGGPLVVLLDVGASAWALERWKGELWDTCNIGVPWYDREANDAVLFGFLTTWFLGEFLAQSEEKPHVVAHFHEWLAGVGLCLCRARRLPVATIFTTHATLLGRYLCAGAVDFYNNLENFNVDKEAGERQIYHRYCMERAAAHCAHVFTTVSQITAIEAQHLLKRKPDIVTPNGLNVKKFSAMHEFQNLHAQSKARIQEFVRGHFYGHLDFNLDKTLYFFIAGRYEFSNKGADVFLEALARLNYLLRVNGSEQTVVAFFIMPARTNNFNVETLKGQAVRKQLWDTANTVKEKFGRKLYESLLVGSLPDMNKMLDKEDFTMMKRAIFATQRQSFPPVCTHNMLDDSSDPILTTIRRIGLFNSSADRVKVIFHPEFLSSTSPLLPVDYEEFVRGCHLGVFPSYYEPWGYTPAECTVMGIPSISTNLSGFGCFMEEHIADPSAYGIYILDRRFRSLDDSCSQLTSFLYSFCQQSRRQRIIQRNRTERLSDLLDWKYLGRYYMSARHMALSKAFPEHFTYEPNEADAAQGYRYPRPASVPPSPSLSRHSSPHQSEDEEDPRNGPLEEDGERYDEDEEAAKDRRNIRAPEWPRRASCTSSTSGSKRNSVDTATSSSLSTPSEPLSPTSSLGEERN
# hGYS1 enzyme (recombinant hGYS1/GN1 protein), sequence (P46976 whole entry partner): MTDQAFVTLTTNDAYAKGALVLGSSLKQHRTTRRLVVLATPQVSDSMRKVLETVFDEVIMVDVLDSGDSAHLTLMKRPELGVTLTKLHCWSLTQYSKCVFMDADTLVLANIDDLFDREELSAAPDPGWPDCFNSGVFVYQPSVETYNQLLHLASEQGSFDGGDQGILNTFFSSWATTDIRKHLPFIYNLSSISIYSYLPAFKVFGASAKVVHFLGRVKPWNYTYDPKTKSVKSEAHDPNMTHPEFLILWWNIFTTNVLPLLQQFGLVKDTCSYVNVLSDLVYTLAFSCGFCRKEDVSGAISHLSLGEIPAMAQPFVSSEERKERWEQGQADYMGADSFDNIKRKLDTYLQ
# hGYS2 enzyme (recombinant hGYS2/GN1 protein), sequence (P54840 whole entry): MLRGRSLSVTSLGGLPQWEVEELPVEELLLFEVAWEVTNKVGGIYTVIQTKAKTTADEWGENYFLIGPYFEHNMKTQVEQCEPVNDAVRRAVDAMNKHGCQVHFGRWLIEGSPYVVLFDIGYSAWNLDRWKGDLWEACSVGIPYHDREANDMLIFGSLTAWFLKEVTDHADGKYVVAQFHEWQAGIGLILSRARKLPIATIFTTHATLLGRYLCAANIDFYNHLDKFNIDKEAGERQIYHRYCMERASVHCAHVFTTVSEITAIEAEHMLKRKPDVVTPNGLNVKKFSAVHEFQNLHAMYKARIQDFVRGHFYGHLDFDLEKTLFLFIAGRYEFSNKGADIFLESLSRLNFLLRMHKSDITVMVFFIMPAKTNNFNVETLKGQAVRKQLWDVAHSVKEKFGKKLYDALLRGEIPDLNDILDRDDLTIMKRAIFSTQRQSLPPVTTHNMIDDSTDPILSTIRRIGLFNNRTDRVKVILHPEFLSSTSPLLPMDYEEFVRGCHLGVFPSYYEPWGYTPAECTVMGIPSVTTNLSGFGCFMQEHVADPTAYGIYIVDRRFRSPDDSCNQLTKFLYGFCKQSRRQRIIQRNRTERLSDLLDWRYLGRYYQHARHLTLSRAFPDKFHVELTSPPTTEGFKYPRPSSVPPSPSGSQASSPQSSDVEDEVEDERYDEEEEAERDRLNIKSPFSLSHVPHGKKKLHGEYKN
# hGYS2 enzyme (recombinant hGYS2/GN1 protein), sequence (P46976 whole entry partner): as the sequence (P46976 whole entry partner) above
Compound,IC50 [1] [µM],IC50 [2] [nM]
"COc1cccnc1CCC(=O)N1C[C@H](F)C[C@H]1C(=O)N[C@@H](c1ccccc1)c1ccc(C(C)C)cc1 [Compound 135, (2S,4R)-4-fluoro-1-[3-(3-methoxypyridin-2-yl)propanoyl]-N-[(S)-phenyl[4-(propan-2-yl)phenyl]methyl]pyrrolidine-2-carboxamide]",> 100,44
"CC(C)c1ccc([C@@H](NC(=O)[C@@H]2C[C@@H](F)CN2C(=O)Cc2cc3ccccc3n2C)c2ccccc2)cc1 [Compound 137, (2S,4R)-4-fluoro-1-[2-(1-methyl-1H-indol-2-yl)acetyl]-N-[(S)-phenyl[4-(propan-2-yl)phenyl]methyl]pyrrolidine-2-carboxamide]",> 100,17
"CC(=O)N1CC[C@@H](C(=O)N2C[C@H](F)C[C@H]2C(=O)N[C@@H](c2ccccc2)c2ccc(C(C)C)cc2)[C@@H]1c1cccnc1 [Compound 140, (2S,4R)-1-[(2R,3R)-1-acetyl-2-(pyridin-3-yl)pyrrolidine-3-carbonyl]-4-fluoro-N-[(S)-phenyl[4-(propan-2-yl)phenyl]methyl]pyrrolidine-2-carboxamide]",> 100,67
"CC(=O)N1CCOC(C(=O)N2C[C@H](F)C[C@H]2C(=O)N[C@@H](c2ccccc2)c2ccc(C(C)C)cc2)C1 (stereo partly drawn) [Compound 141, (2S,4R)-1-(4-acetylmorpholine-2-carbonyl)-4-fluoro-N-[(S)-phenyl[4-(propan-2-yl)phenyl]methyl]pyrrolidine-2-carboxamide]",> 100,181
"CC(=O)N(C)CC(=O)N1C[C@H](F)C[C@H]1C(=O)N[C@@H](c1ccccc1)c1ccc(C(C)C)cc1 [Compound 142, (2S,4R)-4-fluoro-1-[2-(N-methylacetamido)acetyl]-N-[(S)-phenyl[4-(propan-2-yl)phenyl]methyl]pyrrolidine-2-carboxamide]",> 100,77
"CC(=O)N1CCC(C(=O)N2C[C@H](F)C[C@H]2C(=O)N[C@@H](c2ccccc2)c2ccc(C(C)C)cc2)CC1 [Compound 144, (2S,4R)-1-(1-acetylpiperidine-4-carbonyl)-4-fluoro-N-[(S)-phenyl[4-(propan-2-yl)phenyl]methyl]pyrrolidine-2-carboxamide]",> 100,168
"CC(=O)N1CC(C)(C(=O)N2C[C@H](F)C[C@H]2C(=O)N[C@@H](c2ccccc2)c2ccc(C(C)C)cc2)C1 [Compound 146, (2S,4R)-1-(1-acetyl-3-methylazetidine-3-carbonyl)-4-fluoro-N-[(S)-phenyl[4-(propan-2-yl)phenyl]methyl]pyrrolidine-2-carboxamide]",> 100,206
"CC(=O)N1CCC(C(=O)N2C[C@H](F)C[C@H]2C(=O)N[C@@H](c2ccccc2)c2ccc(C(C)C)cc2)C1 (stereo partly drawn) [Compound 147, (2S,4R)-1-(1-acetylpyrrolidine-3-carbonyl)-4-fluoro-N-[(S)-phenyl[4-(propan-2-yl)phenyl]methyl]pyrrolidine-2-carboxamide]",> 100,127
"CC(=O)N1CC2(CC(C(=O)N3C[C@H](F)C[C@H]3C(=O)N[C@@H](c3ccccc3)c3ccc(C(C)C)cc3)=NO2)C1 [Compound 151, (2S,4R)-1-{2-acetyl-5-oxa-2,6-diazaspiro[3.4]oct-6-ene-7-carbonyl}-4-fluoro-N-[(S)-phenyl[4-(propan-2-yl)phenyl]methyl]pyrrolidine-2-carboxamide]",> 100,241
"CC(=O)N1CC(C)(CC(=O)N2C[C@H](F)C[C@H]2C(=O)N[C@@H](c2ccccc2)c2ccc(C(C)C)cc2)C1 [Compound 154, (2S,4R)-1-[2-(1-acetyl-3-methylazetidin-3-yl)acetyl]-4-fluoro-N-[(S)-phenyl[4-(propan-2-yl)phenyl]methyl]pyrrolidine-2-carboxamide]",> 100,285
"CC(=O)N1CCC[C@@H]1CC(=O)N1C[C@H](F)C[C@H]1C(=O)N[C@@H](c1ccccc1)c1ccc(C(C)C)cc1 [Compound 155, (2S,4R)-1-{2-[(2R)-1-acetylpyrrolidin-2-yl]acetyl}-4-fluoro-N-[(S)-phenyl[4-(propan-2-yl)phenyl]methyl]pyrrolidine-2-carboxamide]",> 100,206
"CC(=O)N1CCCO[C@@H](C(=O)N2C[C@H](F)C[C@H]2C(=O)N[C@@H](c2ccccc2)c2ccc(C(C)C)cc2)C1 [Compound 158, (2S,4R)-1-[(2R)-4-acetyl-1,4-oxazepane-2-carbonyl]-4-fluoro-N-[(S)-phenyl[4-(propan-2-yl)phenyl]methyl]pyrrolidine-2-carboxamide]",> 100,70
"CC(=O)N1CCN(CC(=O)N2C[C@H](F)C[C@H]2C(=O)N[C@@H](c2ccccc2)c2ccc(C(C)C)cc2)C(=O)C1 [Compound 160, (2S,4R)-1-[2-(4-acetyl-2-oxopiperazin-1-yl)acetyl]-4-fluoro-N-[(S)-phenyl[4-(propan-2-yl)phenyl]methyl]pyrrolidine-2-carboxamide]",> 100,69

# Further lines, results first:
IC50 [1] [µM],IC50 [2] [nM],Compound
> 100,23,"Cc1cc(C)n(CC(=O)N2C[C@H](F)C[C@H]2C(=O)N[C@@H](c2ccccc2)c2ccc(C(C)C)cc2)n1 [Compound 125, (2S,4R)-1-[2-(3,5-dimethyl-1H-pyrazol-1-yl)acetyl]-4-fluoro-N-[(S)-phenyl[4-(propan-2-yl)phenyl]methyl]pyrrolidine-2-carboxamide]"
> 100,56,"CC(C)c1ccc([C@@H](NC(=O)[C@@H]2C[C@@H](F)CN2C(=O)Cn2ccc3c(F)cccc32)c2ccccc2)cc1 [Compound 128, (2S,4R)-4-fluoro-1-[2-(4-fluoro-1H-indol-1-yl)acetyl]-N-[(S)-phenyl[4-(propan-2-yl)phenyl]methyl]pyrrolidine-2-carboxamide]"
> 100,217,"CC(C)c1ccc([C@@H](NC(=O)[C@@H]2C[C@@H](F)CN2C(=O)CS(=O)(=O)N2CCCC2)c2ccccc2)cc1 [Compound 129, (2S,4R)-4-fluoro-N-[(S)-phenyl[4-(propan-2-yl)phenyl]methyl]-1-[2-(pyrrolidine-1-sulfonyl)acety]pyrrolidine-2-carboxamide]"
> 100,7,"CC(C)c1ccc([C@@H](NC(=O)[C@@H]2C[C@@H](F)CN2C(=O)Cc2cccc3ncccc23)c2ccccc2)cc1 [Compound 130, (2S,4R)-4-fluoro-N-[(S)-phenyl[4-(propan-2-yl)phenyl]methyl]-1-[2-(quinolin-5-yl)acetyl]pyrrolidine-2-carboxamide]"
> 100,10,"COc1ccc(CC(=O)N2C[C@H](F)C[C@H]2C(=O)N[C@@H](c2ccccc2)c2ccc(C(C)C)cc2)c(C#N)c1 [Compound 133, (2S,4R)-1-[2-(2-cyano-4-methoxyphenyl)acetyl]-4-fluoro-N-[(S)-phenyl[4-(propan-2-yl)phenyl]methyl]pyrrolidine-2-carboxamide]"
> 100,41,"CC(C)c1ccc([C@@H](NC(=O)[C@@H]2C[C@@H](F)CN2C(=O)CCc2cnc3[nH]ccc3c2)c2ccccc2)cc1 [Compound 134, (2S,4R)-4-fluoro-N-[(S)-phenyl[4-(propan-2-yl)phenyl]methyl]-1-(3-{1H-pyrrolo[2,3-b]pyridin-5-yl}propanoyl)pyrrolidine-2-carboxamide]"
